These results are taken from patent publication US4190672A, “Method and compositions of treating Parkinsonisms with levodopa and 3',4'-dihydroxy-2-methylisopropiophenone” (priority 1978, dated 1980).

The nature of data set [1]: Behavioral responses and deaths in rats. The format is in vivo, Male Sprague-Dawley rats. As to the method: (§1) Male Sprague-Dawley rats weighing 200-300 g are fasted for 17 hours prior to the experiments. They are kept for at least two days on a day-light, night-dark cycle, and the experiments are conducted between 0900 and 1400 hours on the day following the fast. All injections are given intraperitoneally, and all drugs are given as a suspension in 1% methyl ceullulose.
1. Effect of DHMPP with time: Absolute control rats receive no injections. Levodopa controls are given levodopa, 250 mg/kg. Experimental animals are pretreated with DHMPP, 250 mg/kg, 30 min before receiving a combined injection of DHMPP and levodopa, each 250 mg/kg. Animals are decapitated at 30 min time intervals between 0 and 120 min after levodopa administration. Blood and brain are collected.
(§2) 2. Effect of dose of DHMPP: Absolute and levodopa control rats receive the same treatment as described above. Experimental rats were pretreated with DHMPP (50, 100, 150, 200 or 250 mg/kg) 30 min before receiving the injection of levodopa, 250 mg/kg. All animals are decapitated 90 min after receiving levodopa. Blood and brain are collected.

Data set [2] concerns COMT. Put plainly: Effect of DHMPP with time on plasma and brain levodopa, OMD and dopamine after levodopa administration. The format is in vivo, Male Sprague-Dawley rats. The method, then:
(§3) Male Sprague-Dawley rats weighing 200-300 g are fasted for 17 hours prior to the experiments. They are kept for at least two days on a day-light, night-dark cycle, and the experiments are conducted between 0900 and 1400 hours on the day following the fast. All injections are given intraperitoneally, and all drugs are given as a suspension in 1% methyl ceullulose. 1. Effect of DHMPP with time: Absolute control rats receive no injections. Levodopa controls are given levodopa, 250 mg/kg. […] Blood and brain are collected. […] Analytical procedures: […] The supernatants are collected and the above procedure is repeated on the residue. The combined supernatants are stored at -20° C. Blood samples are collected in heparinized tubes immediately after decapitation, chilled, and centrifuged, and the plasma is pipetted off. Plasma proteins are precipitated in 4 volumes ice-cold 0.4 M perchloric acid solution and centrifuged at 10,000 rpm for 15 min. Protein-free supernatants are decanted and stored at -20° C. […] Am. Soc. Neurochem. 4:105 (1973) Homovanillic acid (HVA) remains in the combined effluent and subsequent water wash; these eluates undergo solvent extractions and are assayed by the automated method of […]., et al., Biochem. […] Levodopa and OMD are eluted together and assayed according to the method of Fahn, S., et al., Anal. Biochem. 46:557 (1972). After dopamine is eluted, it is measured by the automated method of […]., Brit. J. Pharmacol. All eluates are assayed within 10 days of chromatography; they are stored at -20° C., thawed and mixed thoroughly before assay.

The subject of data set [3] is COMT. In words: Effect of dose of DHMPP on plasma and brain OMD, levodopa and dopamine after levodopa treatment. The format is in vivo, Male Sprague-Dawley rats. The method, then: as §1, §2
3. Analytical procedures: Brains are chilled on ice, homogenized in 3 volumes ice-cold 0.4 M perchloric acid containing 0.025% ascorbic acid, and centrifuged at 15,000 rpm for 20 min. The supernatants are collected and the above procedure is repeated on the residue. The combined supernatants are stored at -20° C. Blood samples are collected in heparinized tubes immediately after decapitation, chilled, and centrifuged, and the plasma is pipetted off. Plasma proteins are precipitated in 4 volumes ice-cold 0.4 M perchloric acid solution and centrifuged at 10,000 rpm for 15 min. Protein-free supernatants are decanted and stored at -20° C. All samples are chromatographed within two days of the experiment.
Column chromatography of the sample extracts is carried out on a strong cation resin (Bio Rad AG 50-X8) according to the method of Prased, A. L. N., et al., Trans. Am. Soc. Neurochem. 4:105 (1973) Homovanillic acid (HVA) remains in the combined effluent and subsequent water wash; these eluates undergo solvent extractions and are assayed by the automated method of Prasad, A. L. N., et al., Biochem. Med. 9:136 (1974). Levodopa and OMD are eluted together and assayed according to the method of Fahn, S., et al., Anal. Biochem. 46:557 (1972). After dopamine is eluted, it is measured by the automated method of Atack, C. V., Brit. J. Pharmacol. All eluates are assayed within 10 days of chromatography; they are stored at -20° C., thawed and mixed thoroughly before assay.

Data set [4] deals with catechol-O-methyl transferase (COMT). The settings on record: cited from earlier work.
The conditions of data set [5]: crystalline solid; cited from earlier work.
Data set [6] can be described thus: Effect of DHMPP with time on plasma and brain levodopa, OMD and dopamine after levodopa administration. The format is in vivo, Male Sprague-Dawley rats. The settings on record: rat, ip, 250 mg/kg. As to the method:
as §3

The mark [7] stands for this setting: DHMPP 250 mg/kg pretreatment plus DHMPP and levodopa 250 mg/kg each, i.p.
Where [8] appears, read: all doses of DHMPP, 90 min after levodopa.

Like-named read-outs stand apart in the source and are kept apart here.

Turning to `CC(C)C(=O)c1ccc(O)c(O)c1` [DHMPP, 3',4'-Dihydroxy-2-methyl-propiophenone], in data set [1] (DHMPP 50-250 mg/kg i.p.), the “degree of lethargy versus dosage of DHMPP” value is on record as “related to the dosage of DHMPP employed”. In data set [1] (DHMPP i.p., within 10 min of injection), the “motor activity and behavioral responses to DHMPP” value is “striking reduction in motor activity within 10 min of injection, including prostration, lying on one side, rapid breathing and loss of responsiveness to handling and other stimuli”. The “piloerection in animals receiving both inhibitor and levodopa” value in data set [1] (DHMPP plus levodopa, i.p.) was “Little piloerection is apparent”. Besides, the “deaths at lower doses” value in data set [1] (rat, in vivo) is “Deaths do not occur”. In data set [1] (rat, in vivo, ip, 250 mg/kg), the “deaths, dose-response experiment” value was “two of six”. In addition, in data set [2] (setting [7]), the “increase in plasma levodopa levels on inhibition of COMT” value is listed as “three-fold” and the “prevention of measurable accumulation of OMD in plasma” value is given as “completely prevents measurable accumulation of OMD in plasma”. The “increase in brain levodopa concentration with COMT inhibition” value in data set [2] (DHMPP plus levodopa i.p., 30 min time point) was “more than two-fold”. In addition, the “increase in brain dopamine level on inhibition of COMT” value in data set [2] (DHMPP plus levodopa i.p., at 60 min) is reported as “more than two-fold”. Further, in data set [2] (DHMPP plus levodopa, i.p.), the “accumulation of brain OMD on DHMPP treatment” value is recorded as “blocked”. Besides, in data set [2] (animals treated with DHMPP and levodopa), the “levodopa and dopamine concentrations in brain (conclusion)” value was “striking enhancement and prolongation of levodopa and dopamine concentrations in the brain”. In data set [2] (high dosage, acute levodopa administration), the “accumulation of 3-O-methylated derivatives of catechols in plasma and brain (conclusion)” value was “does inhibit the accumulation of 3-O-methylated derivatives of catechols in plasma and brain”. Also, in data set [3] (DHMPP 100 mg/kg i.p., 90 min after levodopa), the “inhibition of OMD accumulation in plasma relative to levodopa controls” value is given as “completely inhibits”. In addition, the “plasma OMD accumulation” value in data set [3] (DHMPP 100 mg/kg or greater i.p., 90 min after levodopa) was “completely blocked”. The plasma levodopa levels result in data set [3] (DHMPP 50-250 mg/kg i.p., 90 min after levodopa 250 mg/kg) is “not affected”. Also, in data set [3] (DHMPP 100 and 200 mg/kg i.p., 90 min after levodopa), the “accumulation of OMD in brain” value was “inhibited”. The inhibition at 100 mg/kg in data set [3] (Rattus norvegicus, ip, 1.5 h, DHMPP 100 mg/kg i.p., 90 min after levodopa, read-out: inhibition of OMD accumulation in brain relative to levodopa controls) was determined as 80%. In data set [3] (setting [8]), the “dopamine levels in brain” value is given as “not significantly altered” and the “levodopa levels in brain” value was “not significantly altered”. Also, in data set [4], the “inhibition of COMT (literature)” value is on record as “inhibition of the enzyme catechol-O-methyl transferase (COMT)”. Further, the water solubility result in data set [5] is “water-soluble”.
For `N[C@@H](Cc1ccc(O)c(O)c1)C(=O)O` [levodopa, 3-(3,4-dihydroxyphenyl)-L-alanine], the “effect of levodopa on lethargic symptoms induced by DHMPP” value in data set [1] (levodopa 250 mg/kg i.p. after DHMPP) is “markedly attenuates all lethargic symptoms induced by DHMPP, but does not abolish them”. Moreover, the “behavioral responses to levodopa” value in data set [1] (levodopa 250 mg/kg i.p., all rats treated with levodopa) was “increased locomotor activity, erection of hair (piloerection), abnormal protrusion of the eyeball (exophthalmos) and other signs of sympathetic stimulation”. Moreover, the Tmax was 30 min in data set [6] (in vivo, time of peak levodopa in brain); 90 min in data set [6] (plasma, DHMPP plus levodopa i.p., after levodopa administration, read-out: time of peak plasma levodopa level with inhibition of COMT (converted)); 30 min in data set [6] (plasma, levodopa 250 mg/kg i.p., alone or with DHMPP, after levodopa injection, read-out: time of maximal plasma levels of levodopa (converted)). The “OMD accumulation in plasma after levodopa administration” value in data set [2] (levodopa 250 mg/kg i.p.) was “progressively accumulates in plasma”. Moreover, in data set [2] (rat, in vivo), the “time course of brain OMD levels” value is “rise slowly for the first 30 min in levodopa and absolute control animals and then increase more rapidly and linearly”. For the same molecule, the “time of maximal dopamine concentration in brain” value in data set [2] (rat, in vivo) lay within 30 to 60 min. Also, in data set [2] (rat, in vivo, 240 min), the “brain OMD level” value was 18 nmol/g.

In general, inhibition refers to the change of the read-out against control, counted positive when it falls.
